The subject of data set [1] is cornea of the right eye of a Wistar rat. The protocol:
Rat models of corneal angiogenesis were produced as follows. Aqueous benzene compositions having the desired concentration (between 3.0 M and 7.0 M) were prepared by mixing benzene and water. The aqueous composition was then sterilized by heating to 100° C. for 15 minutes. In particular, 3.0 M, 4.0 M, 5.0 M, 6.0 M, or 7.0 M aqueous benzene compositions were prepared. Then, 10 μL of each composition was topically applied to the center of the cornea of the right eye of a Wistar rat that was two to three months old. The benzene aqueous composition was allowed to absorb into the eye, and was applied only once. Because the eye has its own natural protective mechanisms, it was not necessary to wash the eye at the end of the application.

Data set [2] deals with cornea of one eye of a Wistar rat. The protocol:
A rat model of corneal keratoconus was produced as follows. An aqueous benzene composition having a concentration of 7.0 M to 8.5 M was prepared by mixing water and benzene. The composition was then sterilized by heating the solution to 100° C. for 15 minutes. The aqueous benzene composition (10 μL) was topically applied directly to the center of the cornea of one eye of a Wistar rat by micropipetting. The rat was three months old, and benzene was applied only once.

Data set [3] concerns cornea of the right eye of a Wistar rat. Particulars: for Observation in Treated Eye (Number of Rats) Angiogenesis / Observation in Treated Eye (Number of Rats) Corneal Keratoconus / Observation in Treated Eye (Number of Rats) No Change: 10 μL applied once, 5 rats treated. The protocol: Rat models of corneal angiogenesis and corneal keratoconus were produced as follows. Aqueous solutions of phenol having a concentration of 0.1 M, 0.5 M, 1.0 M, 3.0 M, 5.6 M, or 8.5 M were prepared by mixing phenol and water. The solutions were then sterilized by heating to 100° C. for 15 minutes. Then, 10 μL of the sterile phenol solution was topically applied to the center of the cornea of the right eye of a Wistar rat that was two months old. Five rats were treated for each concentration of phenol tested. The phenol solution was allowed to absorb into the eye, and was applied only once. Because the eye has its own natural protective mechanisms, it was not necessary to wash the eye at the end of the application.
Histological studies were performed after eight weeks following the application of phenol. The cornea was excised, and a piece of the corneal epithelium was stained with hematoxylin and eosin stain.

For a further data set, the system named is cornea. Particulars: compared to the amount observed when benzene is used.
The mark [4] stands for this setting: 7.0 M to 8.5 M aqueous benzene composition, 10 μL.

Molecules are shown by their SMILES. Like-named read-outs stand apart in the source and are kept apart here.

In the case of `c1ccccc1` [benzene], the “new blood vessel formation in the cornea” value in data set [1] (all concentrations of benzene (3.0 M to 7.0 M, 10 μL), as early as 15 days after application) is listed as “new blood vessels began to form in the cornea”. The “persistence of observed growth of new blood vessels from the initial application” value in data set [1] (single application of benzene) is on record as “at least four”. Further, the “amount of new blood vessels observed in the cornea, compared with 15 days” value in data set [1] (three weeks after application) is “even greater”. Further, the “amount of new blood vessels observed when higher concentrations were applied” value in data set [1] (within 15 days of application, 3.0 M to 7.0 M) is “increased”. Further, in data set [2] (setting [4]), the “time at which changes in the cornea began to occur following application” value is reported as “within the first week” and the “time of protrusion of the cornea following application” value is on record as “within the second week”. Moreover, the “corneal tissue changes in addition to angiogenesis” value in data set [2] (7.0 M to 8.5 M aqueous benzene composition, 10 μL, applied once (FIG. 3)) was “marked thinning, and outward protrusion”. The “severity of corneal keratoconus / endophthalmitis (intraocular infection)” value in data set [2] (10 μL of a 9.0 M aqueous benzene composition) is “so severe that the rats developed endophthalmitis”.
Consider `Oc1ccccc1` [phenol], for which the “other anatomical or inflammatory alterations besides new corneal vessels” value in data set [3] (3 M phenol solution, 10 μL, three weeks (FIG. 1B)) is reported as “no other anatomical or inflammatory alterations were observed”. In addition, the “Observation in Treated Eye (Number of Rats) Angiogenesis” value in data set [3] (Phenol Concentration 0.1M) is 1 Number of Rats; in data set [3] (Phenol Concentration 0.5M), 1 Number of Rats; in data set [3] (Phenol Concentration 1.0M), 3 Number of Rats; in data set [3] (Phenol Concentration 3.0M), 4 Number of Rats; in data set [3] (Phenol Concentration 6.5M) it was 4 Number of Rats; in data set [3] (Phenol Concentration 8.5M), 3 Number of Rats. Also, the “Observation in Treated Eye (Number of Rats) Corneal Keratoconus” value in data set [3] (Phenol Concentration 0.1M) is given as 0 Number of Rats; in data set [3] (Phenol Concentration 0.5M), 0 Number of Rats; in data set [3] (Phenol Concentration 1.0M) it was 0 Number of Rats; in data set [3] (Phenol Concentration 3.0M), 2 Number of Rats; in data set [3] (Phenol Concentration 6.5M), 2 Number of Rats; in data set [3] (Phenol Concentration 8.5M) it was 1 Number of Rats. In addition, the “Observation in Treated Eye (Number of Rats) No Change” value in data set [3] (Phenol Concentration 0.1M) is reported as 4 Number of Rats; in data set [3] (Phenol Concentration 0.5M) it was 4 Number of Rats; in data set [3] (Phenol Concentration 1.0M), 7 Number of Rats; in data set [3] (Phenol Concentration 3.0M), 1 Number of Rats; in data set [3] (Phenol Concentration 6.5M), 1 Number of Rats; in data set [3] (Phenol Concentration 8.5M) it was 2 Number of Rats. In data set [3] (after single application of aqueous phenol solution), the “period over which blood vessel growth was observed” value is given as “four”. Besides, the “new blood vessel formation in the cornea” value in data set [3] (all concentrations tested (0.1 M to 8.5 M), at least one of the rats in each group, one week after application) is reported as “new blood vessels began to form in the cornea”. Further, in data set [3] (eight weeks after single application of 3.0 M phenol solution (10 μl), FIG. 1C), the “histology of corneal epithelium, hematoxylin and eosin stain” value is reported as “well differentiated blood vessels can be seen under the basal membrane of the corneal epithelium”. The “changes associated with corneal ectasia, particularly corneal keratoconus” value in data set [3] (higher concentrations of phenol tested (3.0 M, 5.6 M, and 8.5 M)) was “observed in some of the rats”. Also, in data set [3] (three weeks after application (FIG. 1B, 3 M solution)), the “amount of new blood vessels observed in the cornea, compared with one week” value is on record as “even greater”. Further, the “fibrosis and scar tissue formation, phenol compared with benzene” value in the data set on cornea is “less fibrosis and scar tissue formation”.

Source of the values: patent US11895992B2, “Animal models of corneal ectatic diseases, methods of producing, and methods of use thereof” (priority 2014, dated 2024).
